Values quoted from earlier work as cited in patent US20030225101A1 (priority 2002, published 2003).

Key:
[1] = oral administration
[2] = system: isolated corpus cavernosum

absolute bioavailability [1]: about 40%
Structure (SMILES): CCCc1nn(C)c2c(=O)[nH]c(-c3cc(S(=O)(=O)N4CCN(C)CC4)ccc3OCC)nc12 [sildenafil, 1-[4-ethoxy-3-(6,7-dihydro-1-methyl-7-oxo-3-propyl-1H-pyrazolo[4,3-d]pyrimidin-5-yl)phenylsulphonyl]-4-methylpiperazine]
direct relaxant effect on isolated corpus cavernosum [2]: no direct relaxant effect
